Source: patent US20100286264A1, “COMPOSITION COMPRISING A NITROOXYDERIVATIVE OF ACETAMINOPHEN AND A ANTICONVULSANT DRUG FOR THE TREATMENT OF NEUROPATHIC PAIN” (Nicox S.A., priority 2008, published 2010)

Test system: spinal cord neuronal responses from adult male Wistar rats with mononeuropathy
Assay: Recording of single motor units: nociceptive responses in rats with mononeuropathy (partial sciatic nerve ligation)
Type: in vivo, rat
Details: for Nociceptive responses to noxious mechanical stimulation: i.v., ± S.E.M.
Protocol: The application routes were intravenous (i.v.). The enhancement of the antinociception was studied by isobolographic analysis. Mononeuropathy was induced under anesthetic regime, seven days before the experiment, using the partial ligation of the sciatic nerve technique. The development of hyperalgesia was assessed by behavioral experiments, studying withdrawal reflex responses evoked by mechanical and thermal stimulation.

Structure (SMILES) | Nociceptive responses to noxious mechanical stimulation (compound 1 15 μmol/kg alone (gabapentin 0)) | Nociceptive responses to noxious mechanical stimulation (compound 1 30 μmol/kg alone (gabapentin 0)) | Nociceptive responses to noxious mechanical stimulation (compound 1 60 μmol/kg alone (gabapentin 0)) | Nociceptive responses to noxious mechanical stimulation (compound 1 120 μmol/kg alone (gabapentin 0)) | Nociceptive responses to noxious mechanical stimulation (compound 1 240 μmol/kg alone (gabapentin 0)) | Effect on nociceptive responses evoked by noxious mechanical and electrical stimulation (intravenous, mechanical and electrical stimulation) | ID50 for noxious mechanical stimulation (intravenous, rats with mononeuropathy, noxious mechanical stimulation) | Nociceptive responses to noxious mechanical stimulation (gabapentin 20 μmol/kg alone) | Nociceptive responses to noxious mechanical stimulation (gabapentin 40 μmol/kg alone) | Nociceptive responses to noxious mechanical stimulation (gabapentin 80 μmol/kg alone) | Nociceptive responses to noxious mechanical stimulation (gabapentin 160 μmol/kg alone) | Nociceptive responses to noxious mechanical stimulation (gabapentin 320 μmol/kg alone)
CC(=O)Nc1ccc(OC(=O)CCCO[N+](=O)[O-])cc1 [Compound 1, 4-(nitrooxy)butanoic acid 4-(N-acetylamino)phenyl ester] | 98 ± 6 percentage of vehicle values | 95 ± 2 percentage of vehicle values | 91 ± 4.5 percentage of vehicle values | 86 ± 5 percentage of vehicle values | 75 ± 9 percentage of vehicle values | dose-dependently reduced the nociceptive responses | 542 ± 5 µmol/kg |  |  |  |  | 
NCC1(CC(=O)O)CCCCC1 [Gabapentin, reference compound] |  |  |  |  |  |  |  | 100 ± 5 percentage of vehicle values | 95 ± 1 percentage of vehicle values | 95 ± 2 percentage of vehicle values | 79 ± 3 percentage of vehicle values | 59 ± 6 percentage of vehicle values
